# Laboratory results as given in patent US11172674B2, “Preservation solutions” (ORGAN PRESERVATION SOLUTIONS LIMITED, priority 2017, dated 2021).
# How the values were obtained:
# human cells = conditions: Heeneman et al 1993; cited from earlier work
# [1] = Stability of aspirin in preservation solution on storage (HPLC); type: physicochemical
# From the text: FIG. 1 illustrates the stability of aspirin in a preservation solution: HPLC methods were developed to measure the concentration of aspirin and salicylic acid in the Prior Art solution. Aspirin is rapidly hydrolysed to salicylic acid and acetic acid during storage. […] As an example, FIG. 1 illustrates that storage of the solution for 8 weeks results in 100% of the aspirin converting to salicylic acid and the production of equimolar amounts of damaging acetic acid.
"parent compound remaining ([1]; Prior Art solution, after 8 weeks storage, HPLC)",aspirin converting to salicylic acid ([1]; storage of the prior art solution for 8 weeks),SMILES,concentration toxic to human cells (human cells)
–,–,N [ammonia],300 µM
none of the parent compound remains,100%,"CC(=O)Oc1ccccc1C(=O)O [aspirin, acetylsalicylic acid]",–
